Tested on: hypertension induced by angiotensin II
Experiment: Decrease in blood pressure after intravenous administration, under i.v. infusion of angiotensin II
Assay type: in vivo, tomcats
Conditions: single dose, angiotensin II infusion 0.5 μg/kg/min, average of 6 experiments
Protocol: The antagonistic activity of the compounds having the formula I was tested on tomcats. The blood pressure was measured on the cervical artery. The tests were performed by introducing a Hypertension (CIBA) infusion into a lateral femoral vane at a speed of 0.5 μg/kg/min. When the increase in blood pressure was stabilized, the aqueous, physiological or carrier-containing solutions of the test compounds and Saralasin were administered in a single dose, intravenously or subcutaneously, and the decrease in blood pressure was measured. In the Table 1 the decrease in the arterial blood pressure under the influence of an intravenous administration of the test compounds is illustrated. For comparision Saralasin is used. The data set forth in the Table 1 were obtained by calculating the average of the results of 6 experiments. The margins of error indicate the scatter of the main value.

| Molecule | Decrease in blood pressure (mmHg) after administration of 10 μg/kg i.v. doses [mmHg] | Decrease in blood pressure (mmHg) after administration of 20 /μg/kg i.v. doses (20 μg/kg i.v.) [mmHg] |
| --- | --- | --- |
| CNCC(=O)N[C@@H](CCCN=C(N)N)C(=O)N[C@H](C(=O)N[C@@H](Cc1ccc(O)cc1)C(=O)N[C@H](C(=O)N[C@@H](Cc1cnc[nH]1)C(=O)N1CCC[C@H]1C(=O)N[C@@H](C)C(=O)O)C(C)C)C(C)C [Saralasin, reference compound] | -41 ± 2.5 |  |
| (Hydroxyacetyl^1,Thr(Me)^8)-angiotensin II [(Hydroxyacetyl^1,Thr(Me)^8)-AngII] | -33 ± 5.3 | -38 ± 4.1 |

Source: US4209442A, “Angiotensin II analogs and process for the preparation thereof” (Richter Gedeon Vegyeszeti Gyar Rt., priority 1977, dated 1980)
